Laboratory results reported in patent publication US20140171431A1, “AZOLE HETEROCYCLIC COMPOUND, PREPARATION METHOD, PHARMACEUTICAL COMPOSITION AND USE” (priority 2011, published 2014).

Target: T1, Lp-PLA2 in rabbit serum (Oryctolagus cuniculus, UniProt G1SE06)
T1 construct: from tissue; host or cells: rabbit serum
T1 sequence (G1SE06 22-423): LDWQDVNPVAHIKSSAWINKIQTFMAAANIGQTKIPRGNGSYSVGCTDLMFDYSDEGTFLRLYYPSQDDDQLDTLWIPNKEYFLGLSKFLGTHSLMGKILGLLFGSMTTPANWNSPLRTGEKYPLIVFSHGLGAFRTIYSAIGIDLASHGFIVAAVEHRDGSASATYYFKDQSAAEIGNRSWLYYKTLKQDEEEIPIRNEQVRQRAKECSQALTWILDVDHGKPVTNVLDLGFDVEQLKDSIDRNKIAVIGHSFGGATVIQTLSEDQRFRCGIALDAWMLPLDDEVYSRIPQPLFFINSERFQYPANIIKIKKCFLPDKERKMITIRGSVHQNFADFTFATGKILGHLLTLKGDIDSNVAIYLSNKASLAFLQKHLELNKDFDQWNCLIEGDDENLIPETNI
Assay: In vitro inhibitory activity towards the enzyme Lp-PLA2 in rabbit serum, [3H]PAF substrate
Type: biochemical
Details: rabbit serum; for inhibition at 0.1 µM: 100 nM, read-out: inhibition, %
Method: The activities of compounds were measured using [^3H] labeled platelet activating factor ([^3H]PAF, Perkinelmer, Lot NET910) as the substrate. The reaction was carried out in a system containing 50 mmol/L HEPES and 150 mmol/L NaCl (pH 7.4) in a total volume of 200 μl. First, 10 μL rabbit serum and 10 μl DMSO solution of the test compound were added to the system and preincubated for 10 min at 37° C. Then 20 nM [^3H]PAF was added as listed in table 1 to start the reaction and incubated for a further 10 min at 37° C. After that, 600 μl of CHCl3/MeOH (2:1) was added and the resulting mixture was vortex mixed and the reaction was stopped. After settled for a while, the mixture was centrifugated at 12000×g for 15 min. The supernatant was transferred to a new tube and 200 μl of CHCl3 was added. The mixture was mixed by vortexing and then settled or centrifugated for 2 min. A 100 μl portion of the supernatant was then collected for radioactivity intensity measurement.
The inhibition rate was determined by the following equation:
Inhibitory rate (%)=1−(DPMcompound tube−DPMblank tube)/(DPMcontrol tube−DPMblank tube)*100%
(Note: DPM is radioactivity intensity unit.)

Row | inhibition at 1 µM [%] | inhibition at 10 µM [%] | inhibition at 0.1 µM [%] | Compound
1 | 25 | 60.3 |  | O=c1nc(SCc2ccc(F)cc2)n(CC2=NOC(c3ccc(-c4ccc(C(F)(F)F)cc4)cc3)N2)c2c1CCC2 (stereo not shown) [Example 7, 2-(4-fluorobenzylthio)-1-((5-(4′-(trifluoromethyl)biphen-yl-4-yl)-4,5-dihydro-1,2,4-oxadiazol-3-yl)methyl)-6,7-dihydro-1H-cyclo-penta[d]pyrimidin-4(5H)-one]
2 |  | 51.2 |  | CCOC(=O)N1CCC(N2C(Cn3c(SCc4cccc(F)c4F)nc(=O)c4c3CCC4)=NOC2c2ccc(-c3ccc(C(F)(F)F)cc3)cc2)CC1 (stereo not shown) [Example 21, ethyl 4-(3-((2-(2,3-difluorobenzylthio)-4-oxo-4,5,6,7-tetrahydro-1H-cyclopenta[d]pyrimidin-1-yl)methyl)-5-(4′-(trifluoromethyl)biphenyl-4-yl)-1,2,4-oxadiazol-4(5H)-yl)piperidine-1-carboxylate]
3 |  | 40 |  | CCn1c(Cc2ccc(-c3ccc(C(F)(F)F)cc3)cc2)nnc1Cn1c(SCc2ccc(F)cc2)nc(=O)c2c1CCC2 [Example 60, 1-((4-ethyl-5-((4′-(trifluoromethyl)biphenyl-4-yl)methyl)-4H-1,2,4-triazol-3-yl)methyl)-2-(4-fluorobenzylthio)-6,7-dihydro-1H-cyclopenta[d]pyrimidin-4(5H)-one]
4 | 50 |  | 2.1 | O=c1nc(SCc2ccc(F)cc2)n(Cc2nccn2Cc2ccc(-c3ccc(Cl)cc3)cc2)c2c1CCC2 [Example 32, 1-((1-((4′-chlorobiphenyl-4-yl)methyl)-1H-imidazol-2-yl)methyl)-2-(4-fluorobenzylthio)-6,7-dihydro-1H-cyclopenta[d]pyrimidin-4(5H)-one]
5 |  | 63 |  | CCOC(=O)N1CCC(N2C(Cn3c(SCc4ccc(F)cc4)nc(=O)c4c3CCC4)=NOC2c2ccc(-c3ccc(C(F)(F)F)cc3)cc2)CC1 (stereo not shown) [Example 22]
6 | 64.9 |  | 12.6 | Cn1cc(Cc2cn(Cc3nccn3Cc3ccc(-c4ccc(C(F)(F)F)cc4)cc3)c(SCc3ccc(F)cc3)nc2=O)cn1 [Example 29, 2-(4-fluorobenzylthio)-5-((1-methyl-1H-pyrazol-4-yl)methyl)-1-((1-((4′-(trifluoromethyl)biphenyl-4-yl)methyl)-1H-imidazol-2-yl)methyl)pyrimidin-4(1H)-one]
7 |  | 12.5 |  | CCCCCCCC1NC(Cn2c(SCc3ccc(F)cc3)cc(=O)c3ccccc32)=NO1 (stereo not shown) [Example 3, 2-(4-fluorobenzylthio)-1-((5-n-heptyl-4,5-dihydro-1,2,4-oxadiazol-3-yl)methyl)quinolin-4(1H)-one]
8 | 32 | 94.8 |  | CCn1c(Cn2cc(Cc3cnn(C)c3)c(=O)nc2SCc2ccc(F)cc2)nnc1-c1ccc(-c2ccc(C(F)(F)F)cc2)cc1 [Example 58, 1-((4-ethyl-5-(4′-(trifluoromethyl)biphenyl-4-yl)-4H-1,2,4-triazol-3-yl)methyl)-2-(4-fluorobenzylthio)-5-((1-methyl-1H-pyrazol-4-yl)methyl)pyrimidin-4 (1H)-one]
9 |  | 7.4 |  | O=c1nc(SCc2ccc(F)cc2)n(Cc2ncc(-c3ccccc3)[nH]2)c2c1CCC2 [Example 26, 2-(4-fluorobenzylthio)-1-((5-phenyl-1H-imidazol-2-yl)methyl)-6,7-dihydro-1H-cyclopenta[d]pyrimidin-4(5H)-one]
10 | 16.2 | 74 |  | CCCC1NC(Cn2c(SCc3ccc(F)cc3)nc(=O)c3c2CCC3)=NO1 (stereo not shown) [Example 6, 2-(4-fluorobenzylthio)-1-((5-n-propyl-4,5-dihydro-1,2,4-oxadiazol-3-yl)methyl)-6,7-dihydro-1H-cyclo-penta[d]pyrimidin-4(5H)-one]
11 | 14.6 |  |  | Cc1ccc(-c2ccc(Cn3ccnc3Cn3cc(Cc4cnn(C)c4)c(=O)nc3SCc3ccc(F)cc3)cc2)cc1 [Example 34, 2-(4-fluorobenzylthio)-5-((1-methyl-1H-pyrazol-4-yl)methyl)-1-((1-((4′-methylbiphenyl-4-yl)methyl)-1H-imidazol-2-yl)methyl)pyrimidin-4(1H)-one]
12 | 16 | 20.4 |  | CCN(CC)CCn1c(-c2ccc(-c3ccc(C(F)(F)F)cc3)cc2)cnc1Cn1c(SCc2ccc(F)cc2)nc(=O)c2c1CCC2 [Example 38, 1-((1-(2-(diethylamino)ethyl)-5-(4′-(trifluoromethyl)biphenyl-4-yl)-1H-imidazol-2-yl)methyl)-2-(4-fluorobenzylthio)-6,7-dihydro-1H-cyclopenta[d]pyrimidin-4(5H)-one]
13 |  | 9.3 |  | CCn1c(CCCc2ccccc2)nnc1Cn1c(SCc2ccc(F)cc2)nc(=O)c2c1CCC2 [Example 59, 1-((4-ethyl-5-(3-phenylpropyl)-4H-1,2,4-triazol-3-yl)methyl)-2-(4-fluorobenzylthio)-6,7-dihydro-1H-cyclopenta[d]pyrimidin-4(5H)-one]
14 | 90.1 |  | 43.2 | O=c1nc(SCc2ccc(F)cc2)n(Cc2nc3ccccc3n2Cc2ccc(-c3ccc(C(F)(F)F)cc3)cc2)c2c1CCC2 [Example 53, 2-(4-fluorobenzylthio)-1-((1-((4′-(trifluoromethyl)biphenyl-4-yl)methyl)-1H-benzo[d]imidazol-2-yl)methyl)-6,7-dihydro-1H-cyclopenta[d]pyrimidin-4(5H)-one]
15 | 29 | 76.8 |  | O=c1nc(SCc2cccc(F)c2F)n(CC2=NOC(c3ccc(-c4ccc(C(F)(F)F)cc4)cc3)N2CCN2CCOCC2)c2c1CCC2 (stereo not shown) [Example 19, 2-(2,3-difluorobenzylthio)-1-((4-(2-morpholinoethyl)-5-(4′-(trifluoromethyl)biphenyl-4-yl)-4,5-dihydro-1,2,4-oxadiazol-3-yl)methyl)-6,7-dihydro-1H-cyclopenta[d]pyrimidin-4(5H)-one]
16 | 26.6 | 82.7 |  | CCCCCCCCCCC1NC(Cn2c(SCc3ccc(F)cc3)nc(=O)c3c2CCC3)=NO1 (stereo not shown) [Example 2, 1-((5-n-decyl-4,5-dihydro-1,2,4-oxadiazol-3-yl)methyl)-2-(4-fluorobenzylthio)-6,7-dihydro-1H-cyclopenta[d]pyrimidin-4(5H)-one]
17 | 33 | 82.4 |  | O=c1nc(SCc2cccc(F)c2F)n(CC2=NOC(c3ccc(-c4ccc(C(F)(F)F)cc4)cc3)N2CCN2CCCCC2)c2c1CCC2 (stereo not shown) [Example 23, 2-(2,3-difluorobenzylthio)-1-((4-(2-(piperidin-1-yl)ethyl)-5-(4′-(trifluoromethyl)biphenyl-4-yl)-4,5-dihydro-1,2,4-oxadiazol-3-yl)methyl)-6,7-dihydro-1H-cyclopenta[d]pyrimidin-4(5H)-one]
18 | 23 | 74.3 |  | O=c1nc(SCc2ccc(F)cc2)n(CC2=NOC(c3ccc(-c4ccc(C(F)(F)F)cc4)cc3)N2CCN2CCOCC2)c2c1CCC2 (stereo not shown) [Example 25, 2-(4-fluorobenzylthio)-1-((4-(2-morpholinoethyl)-5-(4′-(trifluoromethyl)bi-phenyl-4-yl)-4,5-dihydro-1,2,4-oxadiazol-3-yl)meth-yl)-6,7-dihydro-1H-cy-clopenta[d]pyrimidin-4(5H)-one]
19 | 42.3 | 87.5 |  | CCCCCCCCCCCCn1ccnc1Cn1c(SCc2ccc(F)cc2)nc(=O)c2c1CCC2 [Example 30, 1-((1-n-dodecyl-1H-imidazol-2-yl)methyl)-2-(4-fluorobenzylthio)-6,7-dihydro-1H-cyclopenta[d]pyrimidin-4(5H)-one]
20 | 21 | 33.6 |  | CCn1c(Cn2c(SCc3ccc(F)cc3)nc(=O)c3c2CCC3)nnc1-c1ccc(-c2ccc(C(F)(F)F)cc2)cc1 [Example 55, 1-((4-ethyl-5-(4′-(trifluoromethyl)biphenyl-4-yl)-4H-1,2,4-triazol-3-yl)methyl)-2-(4-fluorobenzylthio)-6,7-dihydro-1H-cyclopenta[d]pyrimidin-4(5H)-one]
21 | 88.8 |  | 35.9 | Cn1cc(Cc2cn(Cc3nc4ccccc4n3Cc3ccc(-c4ccc(C(F)(F)F)cc4)cc3)c(SCc3ccc(F)cc3)nc2=O)cn1 [Example 54, 2-(4-fluorobenzylthio)-5-((1-methyl-1H-pyrazol-4-yl)methyl)-1-((1-((4′-(trifluoromethyl)biphenyl-4-yl)methyl)-1H-benzo[d]imidazol-2-yl)methyl)pyrimidin-4 (1H)-one]
22 | 16.3 | 78.5 |  | CCN(CC)CCN1C(Cn2c(SCc3ccc(F)cc3)nc(=O)c3c2CCC3)=NOC1c1ccc(-c2ccc(C(F)(F)F)cc2)cc1 (stereo not shown) [Example 24, 1-((4-(2-(diethylamino)eth-yl)-5-(4′-(trifluorometh-yl)biphenyl-4-yl)-4,5-di-hydro-1,2,4-oxadiazol-3-yl)methyl)-2-(4-fluorobenzyl-thio)-6,7-dihydro-1H-cyclopenta[d]pyrimidin-4(5H)-one]
